Consider 1 compound from patent US20150283093A1, “NANOENCAPSULATION OF CURCUMINOID METABOLITES - PROCESS, COMPOSITION AND APPLICATIONS THEREOF” (priority 2014, published 2015).

A short description of this experiment: Superoxide radical scavenging activity (alkaline DMSO / NBT method). On the procedure: The scavenging activity towards the superoxide radical (O2^−) was measured as the inhibition of superoxide radical (O2^−) generation. The method was performed by using alkaline DMSO method. Potassium superoxide and dry DMSO were allowed to stand in contact for 24 h and the solution was filtered immediately before use. […] Ascorbic acid was used as standard. The experiment was repeated in triplicate and the percentage scavenging was calculated by using the formula:
Inhibition (%)=[(Control−Test)/Control]×100

`Cc1c(C)c2c(c(C)c1O)CCC(C)(C(=O)O)O2` (centres unmarked) [TROLOX]: the “scavenging of superoxide radical (O2−), concentration dependence” value is listed as “concentration dependant scavenging”. In addition, the “scavenging potential of superoxide radical (O2−)” value (at 100 μM concentration) came out at 47.80%.
